Data set [1] deals with Escherichia coli 31 strain. Description: MIC distribution, clinical isolated strains. Particulars: of 31 strains. Format: cell-based. The source says: (Escherichia coli 31 strain)
(§1) It is clear from the results shown in the above tables, as regards the antibacterial activities against clinical isolated strains, the compounds of this invention show quite high activity against not only Pseudomonas aeruginosa but also against Klebsiella as compared with carbenicillin

Data set [2] deals with male Sprague-Dawley rats. Description: Acute nephrotoxicity in combination with glycerol and furocemide in rats. Format: in vivo. Particulars: 1000 mg/Kg s.c.; with glycerol 4 ml/Kg of 50% and furocemide 50 mg/Kg s.c.; 48 hours. The procedure:
c. Glycerol (50%, 4 ml/kg), furocemide (50 mg/kg) and test actibiotics were injected subcutaneously in male Sprague-Dawley rats. […] Animals of each group were sacrificed 48 hours later to estimate serum urea-nitrogen values.

The test system of a further data set is Klebsiella 78 strain. Nature of the data set: MIC distribution, clinical isolated strains. Format: cell-based. Particulars: of 78 strains; for number of strains with MIC 100: MIC 100 μ/ml.
Description: as §1

Data set [3] relates to Pseudomonas aeruginosa 35 strain. Nature of the data set: MIC distribution, clinical isolated strains. Particulars: of 35 strains. Format: cell-based.
Description: (Pseudomonas aeruginosa 35 strain)
as §1

Data set [4] concerns Pseudomonas aeruginosa NC-5 strain. Nature of the data set: Protective effect against experimentally infected mice, one subcutaneous administration. Particulars: s.c. once. Format: in vivo, mice infected with Pseudomonas aeruginosa. The source says: a. Mice (one group included five mice) were infected with pseudomonas aeruginosa NC-5 strain the intraperitoneal route and a solution prepared by dissolving the test antibiotics in sterilized distilled water was once administered by subcutaneous injection immediately after challenge of the test organism and then the numbers of living mice were inspected. […] (The figures shown in Tables VII-IX have the same meaning).

A further data set relates to male dd-N mice. Nature of the data set: Acute toxicity (minimum lethal dose). Format: in vivo. The source says:
a. The minimum lethal doses (MLD) when the compound of this invention was intravenously and subcutaneously administered to male dd-N mice are shown in Table X.

The subject of data set [5] is Proteus mirabilis 1287 strain. Nature of the data set: Protective effect against experimentally infected mice, one subcutaneous administration. Format: in vivo, mice infected with Proteus mirabilis. Particulars: s.c. once, 2 hours after challenge. The procedure: d. Mice (one group included five mice) were infected with Proteus mirabilis 1287 strain via the intraperitoneal route and a solution prepared by dissolving the test antiobiotics in sterilized distilled water was once administered by subcutaneous injection 2 hours after of challenge of the test organism.

Data set [6] has as its system Pseudomonas aeruginosa NC-5 strain. Nature of the data set: Protective effect against experimentally infected mice, three subcutaneous administrations. Format: in vivo, mice infected with Pseudomonas aeruginosa. Particulars: s.c. As for the experimental part: b. Mice (one group included five mice) were infected with pseudomonas aeruginosa NC-5 strain via intraperitoneal route and a solution prepared by dissolving the test substance in sterilized distilled water was administered by subcutaneous injection three times, i. e., immediately after challenge of the test organism, after 2 hours, and after 4 hours.

The nature of data set [7]: Water solubility and pH of aqueous solution. Particulars: 250 mg/ml in water. Format: physicochemical. The procedure:
As the compounds of this invention are easily soluble in water, the compound can be clinically used as an agent for parenteral administration such as an agent for intravenous injection and an agent for intramuscular injection. For example, when sodium D(-)-6-[α-(p-hydroxyphenyl)-α-(4-oxo-4H-thiopyran-3-yl-carboxanido acetamido]penicillanate is dissolved in water, the pH of the solution is about 5.8 (250 mg/ml).

The test system of data set [8] is Pseudomonas aeruginosa NC-5 strain. Description: Protective effect against experimentally infected mice, two oral administrations. Format: in vivo, mice infected with Pseudomonas aeruginosa. As for the experimental part: c. Mice (one group included five mice) were infected with Pseudomonas aeruginosa NC-5 strain via the intraperitoneal route and the test substance was orally administered twice, i. e., immediately after challenge of the test organism and after 2 hours.

Data set [9] deals with male Sprague-Dawley rats. Nature of the data set: Nephrotoxicity after 1 week subcutaneous injection. Particulars: 1000 mg/Kg/day sc, 7 days. Format: in vivo. As for the experimental part: b. Test antibiotics were administered to male Sprague-Dawley rats by subcutaneous injection daily for 7 days. After seven days, animals were sacrificed and estimated for organ weight and serum urea-nitrogen including visual studies of kidney.

Another data set is described as follows: Stability of di-hydrate. Format: physicochemical. The source says: In addition, if the water-containing organic solvent solution keeps up its homogeneity, an organic solvent immiscible with water such as methylene chloride, chloroform, etc., may be added to the solution.

Structures are written as SMILES. Where a name gives a salt, the structure may show the parent alone.

`CC1(C)S[C@@H]2[C@H](NC(=O)[C@H](NC(=O)c3csccc3=O)c3ccc(O)cc3)C(=O)N2[C@H]1C(=O)O` [Example 3, α-(4-oxo-4H-thiopyran-3-carboxamido)-p-hydroxybenzylpenicillin sodium salt]: the “number of strains with MIC 1.56” value in [1] (MIC 1.56 μ/ml) was 2; with Klebsiella 78 strain (MIC 1.56 μ/ml), 0; in data set [3] (MIC 1.56 μ/ml), 2. The “number of strains with MIC […]” value was found to be 1 in [1] (MIC 3.13 μ/ml); 8 in data set [1] (MIC 6.25 μ/ml); 0 in the data set with Klebsiella 78 strain (MIC 3.13 μ/ml); 2 in the data set with Klebsiella 78 strain (MIC 6.25 μ/ml); 5 in data set [3] (MIC 3.13 μ/ml); 6 in data set [3] (MIC 6.25 μ/ml). For the same molecule, the “number of strains with MIC 12.5” value in [1] (MIC 12.5 μ/ml) was determined as 9; with Klebsiella 78 strain (MIC 12.5 μ/ml), 17; in data set [3] (MIC 12.5 μ/ml), 6. The “number of strains with MIC 25” value is 2 in [1] (MIC 25 μ/ml), 30 in the data set on Klebsiella 78 strain (MIC 25 μ/ml) and 2 in [3] (MIC 25 μ/ml). In addition, the “number of strains with MIC 50” value in [1] (MIC 50 μ/ml) was found to be 0; in the data set with Klebsiella 78 strain (MIC 50 μ/ml), 1; in [3] (MIC 50 μ/ml), 5. The “number of strains with MIC 100” value in data set [1] (MIC 100 μ/ml) worked out at 0; in the data set on Klebsiella 78 strain (first column headed 100), 1; in the data set with Klebsiella 78 strain (second column headed 100), 7; in data set [3] (MIC 100 μ/ml), 2. For the same molecule, the results for the “number of strains with MIC >100” value in data set [1] (MIC >100 μ/ml) and in [3] (MIC >100 μ/ml) were 9 and 7, respectively. In addition, the Serum urea nitrogen with male Sprague-Dawley rats [2] was determined as 23.3 ± 2.5 mg/dL. Besides, the “number of strains with MIC 400” value in the data set on Klebsiella 78 strain (MIC 400 μ/ml) is reported as 4. Besides, the “number of strains with MIC >400” value with Klebsiella 78 strain (MIC >400 μ/ml) is recorded as 16. In addition, the “number of living mice / number of mice inspected” value in data set [4] (15 mg) is recorded as 2/5; in data set [4] (30 mg), 3/5; in data set [4] (60 mg), 5/5; in data set [5] (1.25 mg), 1/5; in data set [5] (2.5 mg) it was 2/5; in data set [5] (5 mg), 4/5. The “number of living mice / number of mice inspected” value in data set [5] (10 mg) is listed as 3/5; in data set [6] (2.5 × 3 mg), 5/5; in [6] (5 × 3 mg), 5/5; in data set [6] (10 × 3 mg), 5/5; in data set [8] (25 × 2 mg), 2/5; in data set [8] (50 × 2 mg) it was 3/5. Besides, the “number of living mice / number of mice inspected” value in data set [8] (100 × 2 mg) is recorded as 5/5. The MLD came to 3500 mg/kg with male dd-N mice (i.v.) and 7000 mg/kg in the data set with male dd-N mice (s.c.). Further, the “pH of the solution” value in data set [7] is given as “about 5.8”. In the data set with male Sprague-Dawley rats [9], this molecule registered a Kidney weights of 2.30 g. Besides, the “Serum urea-N” value in the data set on male Sprague-Dawley rats [9] was determined as 20.3 mg/dL.
With `CC1(C)S[C@@H]2[C@H](NC(=O)[C@H](NC(=O)c3csccc3=O)c3ccc(O)cc3)C(=O)N2[C@H]1C(=O)O` [Example 27, D(-)-6-[p-hydroxy-phenyl-α-(4-oxo-4H-thiopyran-3-ylcarboxamido)acetamido]penicillanic acid di-hydrate], in “Stability of di-hydrate”, the stability result is “pure and stable”.

Values taken from US3939150A, “Penicillin derivatives” (priority 1973, dated 1976).
